Reference: patent US20260285853A1, “COMPOUNDS AND METHODS FOR MODULATING SPLICING” (REMIX THERAPEUTICS INC., priority 2023, published 2026)

Experiments:
Assay type in all cases: cell-based
[1] = test system: MYB mRNA; test: Splicing RT-qPCR assay, canonical (CJ) and alternative (AJ) junction mRNA, K562 cells; details: Homo sapiens, K562.3 cells, 24 hours; for AC50: read-out: MYB AJ (AC50, increase in AJ mRNA); for IC50: read-out: MYB CJ (IC50, decrease in CJ mRNA)
Protocol: (§1) Compounds described herein were used to modulate RNA transcript abundance in cells. The expression of a target mRNA was measured by detecting the formation of an exon-exon junction in the canonical transcript (CJ). A compound mediated exon-inclusion event was detected by observing an increase in formation of a new junction with an alternative exon (AJ). Real-time qPCR assays were used to detect these splicing switches and interrogate the potency of various compounds towards different target genes. A high-throughput real time quantitative PCR (RT-qPCR) assay was developed to measure these two isoforms of the mRNA (CJ and AJ) for exemplary genes, such as HTT, SMN2, and MYB, together with a control housekeeping gene, GAPDH or GUSB or PPIA, used for normalization. Briefly, the A673 or K562 cell line was treated with various compounds described herein (e.g., compounds of Formula (I)). After treatment, the levels of the HTT, MYB, or SMN2 mRNA targets were determined from each sample of cell lysate by cDNA synthesis followed by qPCR.
(§2) • Cells-to-CT 1-step kit: ThermoFisher A25602, Cells-to-CT lysis reagent: ThermoFisher 4391851C, TaqMan™ Fast Virus 1-Step Master Mix: ThermoFisher 4444436 • GAPDH: VIC-PL, ThermoFisher 4326317E (Assay: Hs99999905_m1)—used for K562/suspension cell lines • GUSB: VIC-PL, ThermoFisher 4326320E (Assay: Hs99999908_m1)—used for K562/suspension cell lines • PPIA: VIC-PL, ThermoFisher 4326316E (Assay: Hs99999904_m1)—used for A673/adherent cell lines
(§3) The K562 cell line was cultured in IMDM with 10% FBS. For K562, cells were diluted with full growth media and plated in either a 96-well plate (50,000 cells in 50 uL media per well) or a 384-well plate (8,000-40,000 cells in 45 uL media per well). An 11-point 3-fold serial dilution of the compounds were made in DMSO then diluted in media in an intermediate plate. Compound was transferred from the intermediate plate to the cell plate with the top dose at a final concentration of 10 uM in the well. Final DMSO concentration was kept at or below 0.25%. Final volume was 100 uL for 96-well plate and 50 uL for 384-well plate. The cell plate was then placed in an incubator at 37° C. with 5% CO2 for 24 hours.
(§4) The cells were then gently washed with 50 uL-100 uL cold PBS before proceeding to addition of lysis buffer. 30 uL-50 uL of room temperature lysis buffer with DNAse I (and optionally RNAsin) was added to each well. Cells were shaken/mixed thoroughly at room temperature for 5-10 minutes for lysis to take place and then 3 uL-5 uL of room temperature stop solution was added and wells were shaken/mixed again. After 2-5 minutes, the cell lysate plate was transferred to ice for RT-qPCR reaction setup. The lysates could also be frozen at −80° C. for later use.
(§5) In some cases, a direct lysis buffer was used. An appropriate volume of 3× lysis buffer (10 mM Tris, 150 mM NaCl, 1.5%-2.5% Igepal and 0.1-1 U/uL RNAsin, pH 7.4) was directly added to either K562 or A673 cells in media and mixed by pipetting 3 times. The plates were then incubated at room temperature with shaking/rocking for 20-50 minutes to allow for lysis to take place. After this time, the cell lysate plate was transferred to ice to set up for the RT-qPCR reactions. The lysates could also be frozen at −80° C. for later use.
(§6) To set up 10 uL RT-qPCR reactions, cell lysates were transferred to 384-well qPCR plates containing the master mix according to the table below. The plates were sealed, gently vortexed, and spun down before the run. The volumes were adjusted accordingly in some instances where the reaction was carried in 20 uL. The table below summarizes the components of the RT-qPCR reactions:
(§7) The RT-qPCR reaction was performed using a QuantStudio (ThermoFisher) under the following fast cycling conditions. All samples and standards were analyzed at least in duplicate. In some instances, bulk room temperature (RT) step of 5-10 minutes was completed for all plates before proceeding with qPCR. […]

[2] = test system: HTT mRNA; test: as above; details: Homo sapiens, K562.3 cells, 24 hours; for AC50: read-out: HTT AJ (AC50, increase in AJ mRNA); for IC50: read-out: HTT CJ (IC50, decrease in CJ mRNA)
Protocol: as §1, §2, §3, §4, §5, §6, §7

[3] = test system: MYB mRNA; test: Gene panel canonical junction qPCR assay, decrease in CJ mRNA, Table 3; details: decrease in canonical junction (CJ) mRNA, gene panel qPCR, Table 3
Summary of the method: (§8)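 Cells: A673 or K562; 24 h compound exposure, 37 °C, 5% CO2; 11-pt 3-fold series from 10 uM final; DMSO ≤0.25%. Lysate → cDNA → qPCR with junction-spanning primers/probe for CJ transcript. ΔCt vs housekeeper, ΔΔCt vs DMSO, 2^(−ΔΔCt), % response, 4PL → IC50.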

[4] = test system: SMN2 mRNA; test: as above; details: decrease in canonical junction (CJ) mRNA, gene panel qPCR, Table 3
Summary of the method: as §8

[5] = test system: HTT mRNA; test: as above; details: decrease in canonical junction (CJ) mRNA, gene panel qPCR, Table 3
Summary of the method: as §8

[6] = test system: SH-SY5Y (human neuroblastoma) cells; test: Cell viability, Cell Titer Glo 2.0 assay; details: read-out: Viability SHSY5Y.3 GI50
Summary of the method: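 CellTiter-Glo 2.0 luminescence read-out after 72 h compound exposure (37 °C, 5% CO2); medium-only wells as blank. DMSO 0.1% final.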

Row | SMILES | AC50 [1] | IC50 [1] | AC50 [2] | IC50 [2] | IC50 [3] | IC50 [4] | IC50 [5] | GI50 [6]
1 | CN[C@@H]1CN(c2ccc(C(=O)Nc3cc(F)c4nc(C)cn4c3)c3nn(C)cc23)C[C@@H]1C [Compound 108, N-(8-fluoro-2-methyl-imidazo[1,2-a]pyridin-6-yl)-2-methyl-4-[(3S,4S)-3-methyl-4-(methylamino)-pyrrolidin-1-yl]indazole-7-carboxamide] | 100 to 1000 nM | 100 to 1000 nM | > 10 µM | 1 to 10 µM | 100 to 1000 nM | < 100 nM | 1 to 10 µM | 1000 to 10000 nM
2 | COCCN[C@H]1CCN(c2ccc(C(=O)Nc3cc(F)c4nc(C)cn4c3)c3nn(C)cc23)C1 [Compound 112, N-(8-fluoro-2-methyl-imidazo[1,2-a]pyridin-6-yl)-4-[(3S)-3-(2-methoxyethylamino)pyrrolidin-1-yl]-2-methyl-indazole-7-carboxamide] | < 100 nM | 100 to 1000 nM | > 10 µM | 1 to 10 µM | 100 to 1000 nM | < 100 nM | 1 to 10 µM | 1000 to 10000 nM
3 | Cc1cn2cc(NC(=O)c3ccc(N4CC[C@H](NCCO)C4)c4cn(C)nc34)cc(F)c2n1 [Compound 115, N-(8-fluoro-2-methylimidazo-[1,2-a]-pyridin-6-yl)-4-[(3S)-3-(2-hydroxy-ethylamino)-pyrrolidin-1-yl]-2-methylindazole-7-carboxamide] | 100 to 1000 nM | 100 to 1000 nM | 1 to 10 µM | 1 to 10 µM | 100 to 1000 nM | < 100 nM | 1 to 10 µM | 1000 to 10000 nM
4 | C#CCN[C@@H]1CCN(c2ccc(C(=O)Nc3cc(F)c4nc(C)cn4c3)c3nn(C)cc23)C1 [Compound 122] | 100 to 1000 nM | 100 to 1000 nM | 1 to 10 µM | 1 to 10 µM | 100 to 1000 nM | < 100 nM | 1 to 10 µM | 1000 to 10000 nM
5 | Cc1cn2cc(NC(=O)c3ccc(N4CC[C@@H](NCC56CC(CO5)C6)C4)c4cn(C)nc34)cc(F)c2n1 [Compound 124, N-(8-fluoro-2-methyl-imidazo[1,2-a]pyridin-6-yl)-2-methyl-4-[(3R)-3-(2-oxabicyclo[2.1.1]hexan-1-ylmethylamino)pyrrolidin-1-yl]indazole-7-carboxamide] | 100 to 1000 nM | 1000 to 10000 nM | > 10 µM | > 10 µM | 1000 to 10000 nM | < 100 nM | > 10 µM | 1000 to 10000 nM
6 | Cc1cn2cc(NC(=O)c3ccc(N4CC[C@H](NCC56CC(CO5)C6)C4)c4cn(C)nc34)cc(F)c2n1 [Compound 125, N-(8-fluoro-2-methyl-imidazo[1,2-a]-pyridin-6-yl)-2-methyl-4-[(3R)-3-(2-oxabicyclo-[2.1.1]hexan-1-ylmethyl-amino)pyrrolidin-1-yl][6.1]-indazole-7-carboxamide] | 100 to 1000 nM | 100 to 1000 nM | > 10 µM | > 10 µM | 100 to 1000 nM | < 100 nM | > 10 µM | 100 to 1000 nM
7 | CN[C@H]1C[C@H](C)N(c2ccc(C(=O)Nc3cc(F)c4nc(C)cn4c3)c3nn(C)cc23)C1 [Compound 127, N-(8-fluoro-2-methyl-imidazo[1,2-a]pyridin-6-yl)-2-methyl-4-[(2S,4S)-2-methyl-4-(methylamino)-pyrrolidin-1-yl]indazole-7-carboxamide] | > 10000 nM | > 10000 nM | > 10 µM | 1 to 10 µM | > 10000 nM | 100 to 1000 nM | 1 to 10 µM | 1000 to 10000 nM
8 | CCNC1CCN(c2ccc(C(=O)Nc3cn4cc(C)nc4c(F)c3OC)c3[nH]ncc23)CC1 [Compound 170, 4-[4-(ethylamino)piperidin-1-yl]-N-(8-fluoro-7-methoxy-2-methylimidazo[1,2-a]pyridin-6-yl)-1H-indazole-7-carboxamide] | 100 to 1000 nM | < 100 nM | 1 to 10 µM | 1 to 10 µM | < 100 nM | < 100 nM | 1 to 10 µM | 100 to 1000 nM
9 | CCNC1CCN(c2ccc(C(=O)Nc3cn4cc(C)nc4c(F)c3OC)c3[nH]ccc23)CC1 [Compound 171, 4-[4-(ethylamino)piperidin-1-yl]-N-(8-fluoro-7-methoxy-2-methylimidazo[1,2-a]pyridin-6-yl)-1H-indole-7-carboxamide] | > 10000 nM | 1000 to 10000 nM | > 10 µM | > 10 µM | 1000 to 10000 nM | 1000 to 10000 nM | > 10 µM | > 10000 nM
10 | CCNC1CCN(c2ccc(C(=O)Nc3cc(F)c4nc(C)cn4c3)c3[nH]ccc23)CC1 [Compound 172, 4-[4-(ethylamino)piperidin-1-yl]-N-(8-fluoro-2-methylimidazo[1,2-a]pyridin-6-yl)-1H-indole-7-carboxamide] | 1000 to 10000 nM | > 10000 nM | > 10 µM | > 10 µM | > 10000 nM | 1000 to 10000 nM | > 10 µM | > 10000 nM
11 | COc1c(NC(=O)c2ccc(N3CCNCC3)c3cn[nH]c23)cn2cc(C)nc2c1F [Compound 211, N-(8-fluoro-7-methoxy-2-methylimidazo[1,2-a]pyridin-6-yl)-4-(piperazin-1-yl)-1H-indazole-7-carboxamide] | < 100 nM | < 100 nM | 0.1 to 1 µM | 0.1 to 1 µM | < 100 nM | < 100 nM | 0.1 to 1 µM | 100 to 1000 nM
12 | Cc1cn2cc(C(=O)Nc3ccc(N4CCNCC4)c4cn[nH]c34)cc(F)c2n1 [Compound 214, 8-fluoro-2-methyl-N-(4-piperazin-1-yl-1H-indazol-7-yl) imidazo[1,2-a]pyridine-6-carboxamide] | > 10000 nM | > 10000 nM | > 10 µM | 1 to 10 µM | > 10000 nM | > 10000 nM | 1 to 10 µM | > 10000 nM
13 | Cc1cn2cc(C(=O)Nc3ccc(N4C[C@@H](C)N[C@@H](C)C4)c4cn[nH]c34)cc(F)c2n1 [Compound 215, N-[4-[(3R,5S)-3,5-dimethylpiperazin-1-yl]-1H-indazol-7-yl]-8-fluoro-2-methyl-imidazo[1,2-a]pyridine-6-carboxamide] | > 10000 nM | > 10000 nM | > 10 µM | > 10 µM | > 10000 nM | 1000 to 10000 nM | > 10 µM | > 10000 nM
